According to patent publication US20240025884A1 (Dong-A ST Co., Ltd., priority 2022, published 2024):

These compounds were tested against GCN2 (Homo sapiens (Human), UniProt Q9P2K8) (assay: GCN2 Biochemical Assay (TR-FRET, GFP-eIF2S1 substrate phosphorylation)). Details: read-out: IC50 (GCN2 Inhibitory Activity).
GCN2, sequence (Q9P2K8 whole entry): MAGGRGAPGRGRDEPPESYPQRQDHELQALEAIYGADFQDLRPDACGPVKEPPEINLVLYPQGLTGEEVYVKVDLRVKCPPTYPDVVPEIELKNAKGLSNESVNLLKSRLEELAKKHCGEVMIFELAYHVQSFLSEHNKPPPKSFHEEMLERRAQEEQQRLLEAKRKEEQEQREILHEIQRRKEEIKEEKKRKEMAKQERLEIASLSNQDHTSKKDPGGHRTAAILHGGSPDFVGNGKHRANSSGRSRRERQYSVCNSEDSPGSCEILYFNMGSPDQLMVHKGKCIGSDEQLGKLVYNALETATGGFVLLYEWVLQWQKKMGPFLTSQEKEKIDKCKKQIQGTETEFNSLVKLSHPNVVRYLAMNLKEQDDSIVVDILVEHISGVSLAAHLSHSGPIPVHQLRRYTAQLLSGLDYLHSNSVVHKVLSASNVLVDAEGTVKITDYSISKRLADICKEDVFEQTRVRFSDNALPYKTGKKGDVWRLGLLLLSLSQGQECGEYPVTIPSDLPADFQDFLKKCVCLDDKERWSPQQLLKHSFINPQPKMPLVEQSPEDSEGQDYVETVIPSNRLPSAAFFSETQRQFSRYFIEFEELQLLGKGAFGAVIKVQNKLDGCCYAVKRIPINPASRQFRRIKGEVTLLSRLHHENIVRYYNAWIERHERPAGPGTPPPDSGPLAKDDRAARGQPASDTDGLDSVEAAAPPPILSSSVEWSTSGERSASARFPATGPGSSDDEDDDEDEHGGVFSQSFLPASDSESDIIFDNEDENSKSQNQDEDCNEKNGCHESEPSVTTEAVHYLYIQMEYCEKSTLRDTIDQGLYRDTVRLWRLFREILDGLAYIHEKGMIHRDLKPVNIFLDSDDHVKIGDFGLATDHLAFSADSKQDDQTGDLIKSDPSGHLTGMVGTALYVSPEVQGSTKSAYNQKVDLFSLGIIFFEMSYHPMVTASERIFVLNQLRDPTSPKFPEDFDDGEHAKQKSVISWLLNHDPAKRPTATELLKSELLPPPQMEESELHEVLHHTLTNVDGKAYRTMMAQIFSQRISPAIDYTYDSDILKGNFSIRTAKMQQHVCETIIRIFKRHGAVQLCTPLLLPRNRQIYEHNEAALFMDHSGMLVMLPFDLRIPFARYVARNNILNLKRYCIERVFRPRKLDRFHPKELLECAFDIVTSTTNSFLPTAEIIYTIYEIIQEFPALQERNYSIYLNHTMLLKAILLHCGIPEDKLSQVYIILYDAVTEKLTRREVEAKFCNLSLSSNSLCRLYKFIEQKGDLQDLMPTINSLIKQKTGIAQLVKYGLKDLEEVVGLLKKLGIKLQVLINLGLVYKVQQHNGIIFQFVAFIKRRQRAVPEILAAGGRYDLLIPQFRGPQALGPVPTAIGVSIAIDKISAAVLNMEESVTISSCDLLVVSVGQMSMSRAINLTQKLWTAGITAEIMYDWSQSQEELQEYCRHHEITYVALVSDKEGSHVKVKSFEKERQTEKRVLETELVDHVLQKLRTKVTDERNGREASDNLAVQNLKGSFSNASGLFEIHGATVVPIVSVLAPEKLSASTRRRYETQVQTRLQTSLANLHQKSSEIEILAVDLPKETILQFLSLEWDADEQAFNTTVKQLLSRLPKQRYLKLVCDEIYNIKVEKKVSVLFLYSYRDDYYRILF
Procedure, shortened: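 In-house GCN2 (1.6 nM 2× stock) phosphorylates GFP-eIF2S1 (50 nM 2× stock) with ATP (0.2 mM 2× stock) and tRNA, pH 7.5, 70 min at room temperature; 10-point 3.16-fold compound series. TR-FRET detection with Tb-anti-phospho antibody, 2–3 h, Ex 340/Em 490/520 nm; artifact plate spiked with phospho-substrate.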
`Cc1cnc(Nc2cc(C)n(C)n2)nc1-c1c[nH]c2c(N3Cc4ccccc4C3=O)cccc12` [Example 267, 2-(3-(2-((1,5-dimethyl-1H-pyrazol-3-yl)amino)-5-methylpyrimidin-4-yl)-1H-indol-7-yl)isoindolin-1-one] showed an IC50 of 10 to 100 nM.
With `Cc1cnc(Nc2cc(C)n(C)n2)nc1-c1c[nH]c2c(N3Cc4ccc([N+](=O)[O-])cc4C3=O)cccc12` [Example 268, 2-(3-(2-((1,5-dimethyl-1H-pyrazol-3-yl)amino)-5-methylpyrimidin-4-yl)-1H-indol-7-yl)-6-nitroisoindolin-1-one] the IC50 was under 10 nM.
Compound `Cc1cnc(Nc2cc(C)n(C)n2)nc1-c1c[nH]c2c(N3Cc4ccc(N)cc4C3=O)cccc12` [Example 269, 6-amino-2-(3-(2-((1,5-dimethyl-1H-pyrazol-3-yl)amino)-5-methylpyrimidin-4-yl)-1H-indol-7-yl)isoindolin-1-one] has an IC50 of under 10 nM.
Work on `Cc1cnc(Nc2cc(C)n(C)n2)nc1-c1c[nH]c2c(N3Cc4cc(Br)ccc4C3=O)cccc12` [Example 270, 5-bromo-2-(3-(2-((1,5-dimethyl-1H-pyrazol-3-yl)amino)-5-methylpyrimidin-4-yl)-1H-indol-7-yl)isoindolin-1-one] yielded an IC50 of under 10 nM.
`Cc1cnc(Nc2cc(C)n(C)n2)nc1-c1c[nH]c2c(N3Cc4c(cccc4[N+](=O)[O-])C3=O)cccc12` [Example 271, 2-(3-(2-((1,5-dimethyl-1H-pyrazol-3-yl)amino)-5-methylpyrimidin-4-yl)-1H-indol-7-yl)-4-nitroisoindolin-1-one] was tested, and the IC50 was under 10 nM.
Compound `Cc1cnc(Nc2cc(C)n(C)n2)nc1-c1c[nH]c2c(N3Cc4c(N)cccc4C3=O)cccc12` [Example 272, 4-amino-2-(3-(2-((1,5-dimethyl-1H-pyrazol-3-yl)amino)-5-methylpyrimidin-4-yl)-1H-indol-7-yl)isoindolin-1-one] has an IC50 of under 10 nM.
`Cc1cnc(Nc2cc(C)n(C)n2)nc1-c1c[nH]c2c(N3Cc4cccc(Cl)c4C3=O)cccc12` [Example 273, 7-chloro-2-(3-(2-((1,5-dimethyl-1H-pyrazol-3-yl)amino)-5-methylpyrimidin-4-yl)-1H-indol-7-yl)isoindolin-1-one] was tested, and the IC50 was under 10 nM.
In the case of `Cc1cnc(Nc2cc(C)n(C)n2)nc1-c1c[nH]c2c(N3Cc4cccc([N+](=O)[O-])c4C3=O)cccc12` [Example 274, 2-(3-(2-((1,5-dimethyl-1H-pyrazol-3-yl)amino)-5-methylpyrimidin-4-yl)-1H-indol-7-yl)-7-nitroisoindolin-1-one], the IC50 is reported as under 10 nM.
Compound `Cc1cnc(Nc2cc(C)n(C)n2)nc1-c1c[nH]c2c(N3Cc4cccc(I)c4C3=O)cccc12` [Example 275, 2-(3-(2-((1,5-dimethyl-1H-pyrazol-3-yl)amino)-5-methylpyrimidin-4-yl)-1H-indol-7-yl)-7-iodoisoindolin-1-one] has an IC50 of 10 to 100 nM.
`Cc1cnc(Nc2cc(C)n(C)n2)nc1-c1c[nH]c2c(N3Cc4cccc(N)c4C3=O)cccc12` [Example 276, 7-amino-2-(3-(2-((1,5-dimethyl-1H-pyrazol-3-yl)amino)-5-methylpyrimidin-4-yl)-1H-indol-7-yl)isoindolin-1-one] was tested, and the IC50 was 10 to 100 nM.
`Cc1cnc(Nc2cc(C)n(C)n2)nc1-c1c[nH]c2c(N3Cc4cccc(Br)c4C3=O)cccc12` [Example 277, 7-bromo-2-(3-(2-((1,5-dimethyl-1H-pyrazol-3-yl)amino)-5-methylpyrimidin-4-yl)-1H-indol-7-yl)isoindolin-1-one] was tested, and the IC50 was 10 to 100 nM.
For `Cc1cnc(Nc2cc(C)n(C)n2)nc1-c1c[nH]c2c(N3Cc4c(I)cccc4C3=O)cccc12` [Example 278, 2-(3-(2-((1,5-dimethyl-1H-pyrazol-3-yl)amino)-5-methylpyrimidin-4-yl)-1H-indol-7-yl)-4-iodoisoindolin-1-one], the IC50 was under 10 nM.
For `COc1ccc2c(c1)C(=O)N(c1cccc3c(-c4nc(Nc5cc(C)n(C)n5)ncc4C)c[nH]c13)C2` [Example 279, 2-(3-(2-((1,5-dimethyl-1H-pyrazol-3-yl)amino)-5-methylpyrimidin-4-yl)-1H-indol-7-yl)-6-methoxyisoindolin-1-one], the IC50 was 10 to 100 nM.
Work on `COc1cc(OC)c2c(c1)C(=O)N(c1cccc3c(-c4nc(Nc5cc(C)n(C)n5)ncc4C)c[nH]c13)C2` [Example 280, 2-(3-(2-((1,5-dimethyl-1H-pyrazol-3-yl)amino)-5-methylpyrimidin-4-yl)-1H-indol-7-yl)-4,6-dimethoxyisoindolin-1-one] yielded an IC50 of 100 to 1000 nM.
Compound `Cc1cnc(Nc2cc(C)n(C)n2)nc1-c1c[nH]c2c(N3Cc4c(O)cccc4C3=O)cccc12` [Example 281, 2-(3-(2-((1,5-dimethyl-1H-pyrazol-3-yl)amino)-5-methylpyrimidin-4-yl)-1H-indol-7-yl)-4-hydroxyisoindolin-1-one] has an IC50 of under 10 nM.
In the case of `Cc1cnc(Nc2cc(C)n(C)n2)nc1-c1c[nH]c2c(N3Cc4cccc(F)c4C3=O)cccc12` [Example 282, 2-(3-(2-((1,5-dimethyl-1H-pyrazol-3-yl)amino)-5-methylpyrimidin-4-yl)-1H-indol-7-yl)-7-fluoroisoindolin-1-one], the IC50 is reported as under 10 nM.
In the case of `Cc1cnc(Nc2cc(C)n(C)n2)nc1-c1c[nH]c2c(N3Cc4c(Br)ccc(F)c4C3=O)cccc12` [Example 283, 4-bromo-2-(3-(2-((1,5-dimethyl-1H-pyrazol-3-yl)amino)-5-methylpyrimidin-4-yl)-1H-indol-7-yl)-7-fluoroisoindolin-1-one], the IC50 is reported as under 10 nM.
In the case of `Cc1cnc(Nc2cc(C)n(C)n2)nc1-c1c[nH]c2c(N3Cc4ccc(Br)cc4C3=O)cccc12` [Example 284, 6-bromo-2-(3-(2-((1,5-dimethyl-1H-pyrazol-3-yl)amino)-5-methylpyrimidin-4-yl)-1H-indol-7-yl)isoindolin-1-one], the IC50 is reported as 10 to 100 nM.
In the case of `Cc1cnc(Nc2cc(C)n(C)n2)nc1-c1c[nH]c2c(N3Cc4cc(Br)cnc4C3=O)cccc12` [Example 285, 3-bromo-6-(3-(2-((1,5-dimethyl-1H-pyrazol-3-yl)amino)-5-methylpyrimidin-4-yl)-1H-indol-7-yl)-5,6-dihydro-7H-pyrrolo[3,4-b]pyridin-7-one], the IC50 is reported as under 10 nM.
`Cc1cnc(Nc2cc(C)n(C)n2)nc1-c1c[nH]c2c(N3Cc4c(Br)ccnc4C3=O)cccc12` [Example 286, 4-bromo-6-(3-(2-((1,5-dimethyl-1H-pyrazol-3-yl)amino)-5-methylpyrimidin-4-yl)-1H-indol-7-yl)-5,6-dihydro-7H-pyrrolo[3,4-b]pyridin-7-one] gave an IC50 of under 10 nM.
`Cc1cnc2c(c1)CN(c1cccc3c(-c4nc(Nc5cc(C)n(C)n5)ncc4C)c[nH]c13)C2=O` [Example 287, 6-(3-(2-((1,5-dimethyl-1H-pyrazol-3-yl)amino)-5-methylpyrimidin-4-yl)-1H-indol-7-yl)-3-methyl-5,6-dihydro-7H-pyrrolo[3,4-b]pyridin-7-one] showed an IC50 of under 10 nM.
Compound `Cc1cnc(Nc2cc(C)n(C)n2)nc1-c1c[nH]c2c(N3Cc4cccnc4C3=O)cccc12` [Example 288, 6-(3-(2-((1,5-dimethyl-1H-pyrazol-3-yl)amino)-5-methylpyrimidin-4-yl)-1H-indol-7-yl)-5,6-dihydro-7H-pyrrolo[3,4-b]pyridin-7-one] has an IC50 of under 10 nM.
`Cc1cnc(Nc2cc(C)n(C)n2)nc1-c1c[nH]c2c(N3Cc4c(Br)cncc4C3=O)cccc12` [Example 289, 7-bromo-2-(3-(2-((1,5-dimethyl-1H-pyrazol-3-yl)amino)-5-methylpyrimidin-4-yl)-1H-indol-7-yl)-1,2-dihydro-3H-pyrrolo[3,4-c]pyridin-3-one] gave an IC50 of under 10 nM.
`Cc1cnc(Nc2cc(C)n(C)n2)nc1-c1c[nH]c2c(N3Cc4c(ccnc4Br)C3=O)cccc12` [Example 290, 4-bromo-2-(3-(2-((1,5-dimethyl-1H-pyrazol-3-yl)amino)-5-methylpyrimidin-4-yl)-1H-indol-7-yl)-2,3-dihydro-1H-pyrrolo[3,4-c]pyridin-1-one] was tested, and the IC50 was under 10 nM.
`Cc1cnc(Nc2cc(C)n(C)n2)nc1-c1c[nH]c2c(N3Cc4ccc(NC(=O)C5CC5)cc4C3=O)cccc12` [Example 291, N-(2-(3-(2-((1,5-dimethyl-1H-pyrazol-3-yl)amino)-5-methylpyrimidin-4-yl)-1H-indol-7-yl)-3-oxoisoindolin-5-yl)cyclopropanecarboxamide] gave an IC50 of under 10 nM.
In the case of `Cc1cnc(Nc2cc(C)n(C)n2)nc1-c1c[nH]c2c(N3Cc4cccc(NC(=O)C5CCCCC5)c4C3=O)cccc12` [Example 292, N-(2-(3-(2-((1,5-dimethyl-1H-pyrazol-3-yl)amino)-5-methylpyrimidin-4-yl)-1H-indol-7-yl)-3-oxoisoindolin-4-yl)cyclohexanecarboxamide], the IC50 is reported as 100 to 1000 nM.
In the case of `Cc1cnc(Nc2cc(C)n(C)n2)nc1-c1c[nH]c2c(N3Cc4cccc(NC(=O)c5ccccc5)c4C3=O)cccc12` [Example 293, N-(2-(3-(2-((1,5-dimethyl-1H-pyrazol-3-yl)amino)-5-methylpyrimidin-4-yl)-1H-indol-7-yl)-3-oxoisoindolin-4-yl)benzamide], the IC50 is reported as 100 to 1000 nM.
`Cc1cnc(Nc2cc(C)n(C)n2)nc1-c1c[nH]c2c(N3Cc4c(NC(=O)c5ccccc5)cccc4C3=O)cccc12` [Example 294, N-(2-(3-(2-((1,5-dimethyl-1H-pyrazol-3-yl)amino)-5-methylpyrimidin-4-yl)-1H-indol-7-yl)-1-oxoisoindolin-4-yl)benzamide] showed an IC50 of 10 to 100 nM.
`Cc1cnc(Nc2cc(C)n(C)n2)nc1-c1c[nH]c2c(N3Cc4c(NC(=O)C5CCCCC5)cccc4C3=O)cccc12` [Example 295, N-(2-(3-(2-((1,5-dimethyl-1H-pyrazol-3-yl)amino)-5-methylpyrimidin-4-yl)-1H-indol-7-yl)-1-oxoisoindolin-4-yl)cyclohexanecarboxamide] showed an IC50 of 10 to 100 nM.
Compound `Cc1cnc(Nc2cc(C)n(C)n2)nc1-c1c[nH]c2c(N3Cc4c(NC(=O)N5CCOCC5)cccc4C3=O)cccc12` [Example 296, N-(2-(3-(2-((1,5-dimethyl-1H-pyrazol-3-yl)amino)-5-methylpyrimidin-4-yl)-1H-indol-7-yl)-1-oxoisoindolin-4-yl)morpholine-4-carboxamide] has an IC50 of under 10 nM.
